Key:
[1] = tested on: hippocampal synaptic plasticity (DG-LTP); test: Long-term potentiation (LTP) in dentate gyrus of hippocampal slices after intranasal administration; details: intranasal once a day for four days, 60 minutes after HFS
[2] = tested on: hippocampal dentate gyrus neurogenesis; test: Hippocampal neurogenesis (BrdU, DCX, NeuN confocal microscopy) after intranasal administration; assay type: in vivo, rat
Source text: The box-plot graphs enclosed by a broken line show the results from the quantitative analyses in healthy rats (A) and diabetic rats (B) of cells that have incorporated BrdU and are at the same time positive for Doublecortin (DCX) (graphs enclosed by a dashed line box) or NeuN (graphs enclosed by a dotted line box). Median±interquartile, n=4 animals per experimental group.
It is also known that diabetic encephalopathy impairs the hippocampal neurogenesis process. In order to assess the effects induced by exogenous administration of the two hproNGF peptide isoforms on hippocampal neurogenesis, the hproNGF-A peptide for use according to the invention and the known hproNGF-B peptide were administered to healthy and diabetic rats.
In order to assess the effects of the treatments on dentate gyrus neurogenesis, at the time of diabetes induction, rats were inoculated with bromodeoxyuridine (BrdU), which intercalates into newly formed DNA, specifically labelling cells proliferating at the time of inoculation. Subsequently, a confocal microscopy analysis was performed by labelling with anti-BrdU antibodies and specific antibodies to detect the presence of immature neurons (antibodies to doublecortin, DCX) or mature neurons (antibodies to NeuN).

[3] = tested on: PC12 cells; test: Viability test on PC12 cells in suspension after serum deprivation; assay type: cell-based, rat; details: 48 hours of culture, 50 ng/ml mNGF or 100 ng/ml hproNGF-A or hproNGF-B
Procedure: FIG. 3B is a histogram showing the results from the viability test performed on PC12 cells in suspension after addition of the factors listed under A above.
PC12 cells were cultured in RPMI 1640 culture medium supplemented with 10% horse serum and 5% calf serum in a humidified atmosphere with 5% CO2 at 37° C. The exponentially growing cells were then seeded on 6-well plates containing poly-L-Lysine, to allow adherence of the cells to the bottom of the well.

[4] = tested on: PC12 cells; test: PC12 cell neuronal differentiation test; assay type: cell-based, rat; details: serum-free medium, 50 ng/ml mNGF or 100 ng/ml hproNGF-A or hproNGF-B, five-day incubation
[5] = tested on: hippocampal cells of the dentate gyrus (granule layer and hilus); test: Hoechst-positive cell count in hippocampal dentate gyrus after intranasal administration; assay type: in vivo, rat; details: control (healthy) rats, intranasal once a day for four days
Procedure: The broken lines show regions of the Dentate Gyrus (DG-H and DG-Granule Layer) where cell counts were performed, shown in the graphs in FIG. 4B.
To check whether the opposite nature of the two different hproNGF isoforms could affect the number of hippocampal cells and whether the intranasal administration of proNGF could have an effect on diabetes-induced neuronal loss, Hoechst-positive cells were analysed by confocal microscopy in both the cell layers of the hippocampal dentate gyrus, the granule layer (GL) and the hilus (HL) (as shown in FIG. 4A). The rats were deeply anesthetized and transcardially perfused with 0.1 M phosphate buffer followed by 4% paraformaldehyde fixative in 0.1 M phosphate buffer. The brains were removed and cryoprotected with 30% sucrose in phosphate buffer. 40 μm-thick coronal sections of both hemispheres. ranging −2.40 /−3.72 mm from the bregma according to the Paxinos Rat Brain Atlas, were cut on a cryostat and then processed. The brain sections were pre-incubated for 2 hours at room temperature (RT) with PBS containing 10% donkey serum (v/v), 1% BSA (w/v) and 0.3% Triton X-100 (v/v). After washing with PBS, the sections were incubated (2 h, RT) with specific secondary antibodies. Subsequently, the sections were rinsed three times in PBS and incubated for 10 minutes with Hoechst dye for specific staining of the nuclei. […]

[6] = tested on: noradrenergic fibres in the locus coeruleus; test: Tyrosine hydroxylase immunolocalization in locus coeruleus after intranasal administration (central regulation of sympathetic activity); assay type: in vivo, rat; details: adult rats
Procedure: (§1) (A) Representative photomicrograph of the results from the Western blot analysis performed on conditioned culture media of rat PC12 cells stimulated with hproNGF-A (upper panel) or mNGF (lower panel) for 24 hours. The samples examined were collected at time 0 and 4, 8 and 24 hours post-stimulation. (B) Representative photomicrographs of the immunolocalization of the tyrosine hydroxylase enzyme on brain tissue (locus coeruleus) sections taken from rats after intranasal administration of proNGFA or mNGF.
The present inventors also carried out experiments aimed at testing the effects of the action of NGF and the proNGF-A peptide on the central regulation of the neuronal sympathetic activity. In short, the NGF or proNGF-A peptides were administered intranasally to the brain parenchyma of adult rats. Subsequently, the noradrenergic neurons located in the locus coeruleus, a brain region responsible for the central control of the functionality of the sympathetic nervous system, were analysed by immunolabelling on thin slices for tyrosine hydroxylase enzyme. Tyrosine hydroxylase enzyme represents an indirect measurement of the production of the noradrenaline neurotransmitter in neurons of certain brain areas. […]

[7] = tested on: extracellular proteases; test: Permanence in conditioned culture medium of stimulated PC12 cells (Western blot), resistance to extracellular proteases; assay type: in vitro ADME; details: conditioned medium of rat PC12 cells, sampled at 0, 4, 8 and 24 hours post-stimulation
Procedure: as §1
In order to assess the resistance of hproNGF-A and mature NGF to the action of extracellular proteases, rat pheochromocytoma cells (PC12) were stimulated with either of the two peptides. Samples collected from conditioned cell culture media at successive times (time zero; 4, 8 and 24 hours post-stimulation) were subjected to Western blot assay in order to verify the permanence of hproNGF-A and mNGF in the culture medium.

Substance: hproNGF-B: already known human proNGF variant (accession number NM_002506.2), precursor of mature NGF, 221 amino acids long
- extent of DG-LTP compared to saline-treated group ([1]; control groups (healthy animals)): 28%
- DG-LTP compared to saline-treated diabetic rats (improvement of streptozotocin-induced decrease) ([1]; diabetic rats (streptozotocin)): not different from that measured in saline-treated diabetic rats
- diabetes-induced alteration in the number of BrdU+-cells ([2]; diabetic rats): no influence
- percentage of BrdU+-cells expressing DCX ([2]; diabetic rats): no influence
- number of BrdU-immunopositive cells ([2]; healthy rats): significant reduction
- percentage of cells simultaneously immunopositive for BrdU and DCX ([2]; healthy rats): significant reduction
- percentage of living cells [3]: induces a decrease in the percentage of living cells
- neuronal differentiation of PC12 cells (neurites) [4]: showed evident signs of suffering
- number of cells in hilus and granule layer of dentate gyrus compared to saline-treated rats [5]: decreased significantly

Substance: mNGF: mature Nerve Growth Factor (NGF) peptide, neurotrophin used as comparator
- arborization (sprouting) of noradrenergic fibres containing tyrosine hydroxylase in the locus coeruleus [6]: causes arborization (sprouting) of the noradrenergic fibres
- time the peptide remains in the culture medium after the stimulus [7]: not more than 8 hours
- percentage of living cells [3]: maintain a significant proportion of living cells
- neuronal differentiation of PC12 cells (neurites) [4]: exhibited the characteristic extensions (neurites)
